Source: patent US11253524B2 (Gilead Sciences, Inc., priority 2018, dated 2022)
Values belong to the molecule of their own block, whether it stands above or below them.

What was measured:
[1] = target: T1, human hepatic microsomal UGT1A1 (Homo sapiens, UniProt P22309); assay: biochemical
T1 sequence (P22309 26-533): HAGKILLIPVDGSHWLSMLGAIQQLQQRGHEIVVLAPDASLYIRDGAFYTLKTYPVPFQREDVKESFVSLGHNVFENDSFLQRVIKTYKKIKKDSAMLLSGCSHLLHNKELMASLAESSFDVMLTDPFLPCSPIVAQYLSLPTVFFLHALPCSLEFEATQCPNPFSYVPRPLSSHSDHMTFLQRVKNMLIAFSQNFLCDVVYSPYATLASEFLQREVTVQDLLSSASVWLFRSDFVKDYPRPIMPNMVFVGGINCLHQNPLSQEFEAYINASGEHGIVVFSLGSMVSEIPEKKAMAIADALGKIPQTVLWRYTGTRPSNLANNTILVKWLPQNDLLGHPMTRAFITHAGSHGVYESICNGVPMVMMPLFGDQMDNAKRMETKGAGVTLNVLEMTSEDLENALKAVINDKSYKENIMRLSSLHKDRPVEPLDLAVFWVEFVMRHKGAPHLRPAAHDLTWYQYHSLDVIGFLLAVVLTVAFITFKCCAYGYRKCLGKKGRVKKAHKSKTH
Procedure: The conditions for the assay were determined to be linear with respect to microsomal protein concentration and incubation time. […] Microsomal UGT1A1 activity was determined in duplicate. […] Diluted microsomal fraction was incubated on ice for 15 minutes with alamethicin, magnesium chloride and SACLAC. Substrate and inhibitor were then added and the mixture warmed to 37° C. for 0.5 minute. The reaction was initiated by the addition of UDP glucuronic acid in potassium phosphate buffer. The incubation continued at 37° C. with shaking and no light exposure for 2 minutes. Reactions were terminated by addition of one volume of 200 mM ascorbic acid in methanol, containing 200 nM 2-(N-(2-ethylphenyl)methylsulfonamido)-N-(2-(pyridin-2-ylthio)ethyl)acetamide as the internal standard.
A Shimadzu UFLC XR UPLC system was used for analysis. The column used was a Thermo-Hypersil Gold 1.9 μm C18 column (30×2.1 mm) held at 60° C. Mobile phases were; A: water containing 0.1% (v/v) formic acid, and B: acetonitrile containing 0.1% (v/v) formic acid, pumped at 0.7 mL/minute. Elution was achieved by a series of linear gradients over 2 minutes. The mass spectrometer was an Applied Biosciences SCIEX QTRAP 5500 triple quadrupole mass spectrometer with an electrospray interface operating in positive ion mode. Quantification was by metabolite/internal standard peak area ratio (PAR).
MS/MS transitions ([M+H]+) of m/z 761.2/475.1 and 937.2/475.1 for the monoglucuronide and diglucuronide, respectively. The PAR values for the two monoglucuronides were combined for quantification.
Reaction velocities were calculated from the rates of formation of the metabolites and were compared to those seen with the vehicle control (100% activity). IC50 values were calculated by non-linear regression using GraphPad Prism 7.03 and a sigmoidal three parameter inhibition model. […] During the testing period the inhibitory potency of atazanavir was determined four times, with each concentration tested in duplicate in each determination. The data from all runs were pooled and a global fit performed to determine the lower plateau value. […] For atazanavir, the IC50 values from the four duplicate runs were combined to generate a summary geometric mean and multiplicative standard deviation for this positive control inhibitor.

[2] = target: T2, MRP2 (ABCC2) (Homo sapiens, UniProt Q92887); assay: in vitro; assay type: biochemical; conditions: human
T2 construct: host or cells: membrane vesicle preparations
T2 sequence (Q92887 whole entry): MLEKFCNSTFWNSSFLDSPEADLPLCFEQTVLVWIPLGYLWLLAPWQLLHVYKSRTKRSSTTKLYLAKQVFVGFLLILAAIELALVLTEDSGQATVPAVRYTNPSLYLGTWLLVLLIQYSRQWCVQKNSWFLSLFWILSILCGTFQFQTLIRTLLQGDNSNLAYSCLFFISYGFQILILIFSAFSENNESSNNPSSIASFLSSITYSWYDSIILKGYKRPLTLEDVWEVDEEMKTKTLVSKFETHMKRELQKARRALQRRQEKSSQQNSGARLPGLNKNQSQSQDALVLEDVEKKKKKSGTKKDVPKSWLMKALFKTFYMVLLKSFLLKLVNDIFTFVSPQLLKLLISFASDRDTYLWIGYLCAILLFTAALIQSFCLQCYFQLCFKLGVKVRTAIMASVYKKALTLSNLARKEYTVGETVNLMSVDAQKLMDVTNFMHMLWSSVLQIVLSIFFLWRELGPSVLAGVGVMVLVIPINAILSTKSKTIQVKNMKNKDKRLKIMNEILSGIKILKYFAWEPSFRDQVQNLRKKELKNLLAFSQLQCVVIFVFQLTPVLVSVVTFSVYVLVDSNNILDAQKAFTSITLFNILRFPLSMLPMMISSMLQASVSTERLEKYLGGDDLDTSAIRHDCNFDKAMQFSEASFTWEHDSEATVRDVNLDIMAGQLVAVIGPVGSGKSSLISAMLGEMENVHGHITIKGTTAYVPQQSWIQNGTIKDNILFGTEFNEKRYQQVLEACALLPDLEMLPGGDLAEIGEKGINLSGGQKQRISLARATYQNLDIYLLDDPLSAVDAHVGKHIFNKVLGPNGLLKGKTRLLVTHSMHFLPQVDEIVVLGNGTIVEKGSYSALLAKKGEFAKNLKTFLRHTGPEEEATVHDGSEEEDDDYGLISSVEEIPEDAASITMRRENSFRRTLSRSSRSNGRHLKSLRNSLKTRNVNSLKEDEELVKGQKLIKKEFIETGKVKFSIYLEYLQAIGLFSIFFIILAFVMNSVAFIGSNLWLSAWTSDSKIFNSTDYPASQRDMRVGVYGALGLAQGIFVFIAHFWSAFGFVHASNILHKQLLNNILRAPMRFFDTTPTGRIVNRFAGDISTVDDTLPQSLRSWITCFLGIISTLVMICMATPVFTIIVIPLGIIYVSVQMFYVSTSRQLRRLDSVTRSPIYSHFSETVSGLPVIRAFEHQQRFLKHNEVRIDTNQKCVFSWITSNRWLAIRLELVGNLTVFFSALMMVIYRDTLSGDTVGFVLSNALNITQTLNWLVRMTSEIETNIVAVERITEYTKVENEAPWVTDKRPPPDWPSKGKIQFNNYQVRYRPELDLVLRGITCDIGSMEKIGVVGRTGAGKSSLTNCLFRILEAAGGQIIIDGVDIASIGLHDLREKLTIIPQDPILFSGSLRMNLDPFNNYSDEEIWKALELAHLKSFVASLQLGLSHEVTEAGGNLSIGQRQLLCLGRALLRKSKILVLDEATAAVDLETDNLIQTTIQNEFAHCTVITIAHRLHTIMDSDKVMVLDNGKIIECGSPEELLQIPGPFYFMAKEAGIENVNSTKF
Procedure: Cells and experimental conditions for the transporter inhibition assays are summarized below in Table 7. […] M15, M20, and M23 were prepared according to the procedures described herein. All other materials were purchased by SOLVO Biotechnology and experiments were conducted according to SOLVO Standard Operating Procedures (SOPs) of its certified ISO 9001:2008 system. Lot and product information was recorded by SOLVO Biotechnology.
Test compounds and positive control was incubated with membrane vesicle preparations (total protein: 50 μg/well) and the model substrate in the absence or presence of ATP. Reaction mixtures were preincubated for 15 minutes at 37° C. Reactions were started by the addition of 25 μL of 12 mM MgATP or AMP assay buffer (for background controls) preincubated separately. Reactions were stopped after 5 min by the addition of 200 μL of ice-cold washing buffer and immediate filtration via glass fiber filters mounted to a 96-well plate (filter plate). The filters were washed, dried and the amount of substrate inside the filtered vesicles determined by liquid scintillation. A positive control inhibitor was tested in parallel. Control membranes lacking transporter expression were used as negative control. All assays were performed in duplicate.
Fractional transport activities were calculated from the following equation: Activity %=(A−B)/(C−D)×100 where A is translocated amount of substrate in the presence of TA and ATP, B is translocated amount of substrate in the presence of TA, C is translocated amount of substrate in the presence of solvent and ATP, and D is translocated amount of substrate in the presence of solvent. IC50 Determination in Transporter Assays
IC50 is defined as the test article concentration needed to inhibit the maximal transporter specific transport by 50%. IC50 values were calculated using non-linear fitting of % inhibition versus concentration to a sigmoidal curve with a variable Hill Coefficient using GraphPad Prism 5 (GraphPad Software Inc., San Diego, Calif.). If the % inhibition was less than 50% at the highest concentration tested, the IC50 was not determined. No inhibition observed (NIO) is reported for relative inhibition results <20% and no concentration dependent transport observed up to the highest concentration tested.

[3] = substrate: C=CC1=C(C)/C(=C/c2[nH]c(Cc3[nH]c(/C=C4\NC(=O)C(C)=C4C=C)c(C)c3CCC(=O)O)c(CCC(=O)O)c2C)NC1=O; assay: cells, lysate or membranes named; conditions: other: under the assay conditions; pH 7.4

IC50 [1]: 1.2 µM | Lower plateau value, activity remaining (global best fit) ([1]; pooled data of four runs, standard error 2.94%): 10.96%
Molecule: COC(=O)N[C@H](C(=O)N[C@@H](Cc1ccccc1)[C@@H](O)CN(Cc1ccc(-c2ccccn2)cc1)NC(=O)[C@@H](NC(=O)OC)C(C)(C)C)C(C)(C)C [atazanavir, reference compound]

inhibition at 5 min, 200 µM [2]: ≥ 99%
Molecule: CCc1oc2ccccc2c1C(=O)c1cc(Br)c(O)c(Br)c1 [benzbromarone, reference compound]

B1: human hepatic microsomal UGT1A1 (Homo sapiens) (protein)
chain: HAGKILLIPVDGSHWLSMLGAIQQLQQRGHEIVVLAPDASLYIRDGAFYTLKTYPVPFQREDVKESFVSLGHNVFENDSFLQRVIKTYKKIKKDSAMLLSGCSHLLHNKELMASLAESSFDVMLTDPFLPCSPIVAQYLSLPTVFFLHALPCSLEFEATQCPNPFSYVPRPLSSHSDHMTFLQRVKNMLIAFSQNFLCDVVYSPYATLASEFLQREVTVQDLLSSASVWLFRSDFVKDYPRPIMPNMVFVGGINCLHQNPLSQEFEAYINASGEHGIVVFSLGSMVSEIPEKKAMAIADALGKIPQTVLWRYTGTRPSNLANNTILVKWLPQNDLLGHPMTRAFITHAGSHGVYESICNGVPMVMMPLFGDQMDNAKRMETKGAGVTLNVLEMTSEDLENALKAVINDKSYKENIMRLSSLHKDRPVEPLDLAVFWVEFVMRHKGAPHLRPAAHDLTWYQYHSLDVIGFLLAVVLTVAFITFKCCAYGYRKCLGKKGRVKKAHKSKTH
Km [3]: 0.98 µM
